Test results published in the C3SDB collision cross section collection.
“And” between values parts separate entries of the source, which are not always exact repeats. Equal entries are not always repeated.

Conditions: [M+H-H2O]+; instrument: TW; calibrated with polyalanine and drug standards

Compared with CNc1ccccc1C(=O)N1CCc2c([nH]c3ccccc23)C1=O [RHETSININE], CC(C)=CCC/C(C)=C/CC/C(C)=C/CC/C(C)=C/CC/C(C)=C/CC/C(C)=C/CC/C(C)=C/CC/C(C)=C/CC/C(C)=C/CO [SOLANESOL] is higher in “collision cross section (N2)” value: 166.5 Å² for the first, 256.8 Å² for the second.

Same assay, conditions: [M+H]+; instrument: TW; calibrated with polyalanine and drug standards

Compared with NC(=O)C1(N2CCCCC2)CCN(CCCC(=O)c2ccc(F)cc2)CC1 [PIPAMPERONE], Cc1nc2sccn2c(=O)c1CCN1CCC(=C(c2ccc(F)cc2)c2ccc(F)cc2)CC1 [RITANSERIN] is higher in “collision cross section (N2)” value: 192.6 Å² for the first, 220.7 Å² for the second.

Going from O=C(O)c1ccc2c(c1)OCO2 [PIPERONYLIC ACID] to O=C(O)c1cc(=O)c2cccc(O)c2[nH]1 [XANTHURENIC ACID], the “collision cross section (N2)” value rises from 124.5 Å² to 137.7 Å².

Compared with COc1cc(/C=C/C(=O)N2CCC=CC2=O)cc(OC)c1OC [PIPLARTINE], COc1cc(C(=O)N2CCOCC2)cc(OC)c1OC [TRIMETOZINE] is lower in “collision cross section (N2)” value: 176.1 Å² for the first, 164.5 Å² for the second.

Compared with C[C@]12C=CC(=O)C=C1CC[C@@H]1[C@@H]2[C@@H](O)C[C@@]2(C)[C@H]1CC[C@]2(O)C(=O)CO [PREDNISOLONE], C[C@]12C=CC(=O)C=C1CC[C@H]1[C@@H]3C[C@@H](O)[C@](O)(C(=O)CO)[C@@]3(C)C[C@H](O)[C@@]12F [TRIAMCINOLONE] is higher in “collision cross section (N2)” value: 183.7 Å² for the first, 186.8 Å² for the second.

First: CC(C)=CCOc1cc2oc(=O)ccc2cc1O [PRENYLETIN]
Second: O=c1cc(-c2ccccc2)oc2cccc(O)c12 [PRIMULETIN]
The “collision cross section (N2)” value of the first is higher: 153.5 Å² for the first, 147.3 Å² for the second.

Compared with CC(=O)[C@H]1CC[C@H]2[C@@H]3CCC4=CC(=O)CC[C@]4(C)[C@H]3CC[C@]12C [PROGESTERONE], C[C@@H]1CC[C@@]2(OC1)O[C@H]1C[C@H]3[C@@H]4CC[C@@H]5C[C@@H](O)CC[C@]5(C)[C@H]4CC[C@]3(C)[C@H]1[C@@H]2C [SMILAGENIN] is higher in “collision cross section (N2)” value: 177.8 Å² for the first, 207.7 Å² for the second.

Compared with CCCN(CCC)C(=O)C(CCC(=O)O)NC(=O)c1ccccc1 (centres undefined) [PROGLUMIDE], CCCN(CCC)CCc1cccc2c1CC(=O)N2 [ROPINIROLE] is lower in “collision cross section (N2)” value: 181.1 Å² for the first, 162.5 Å² for the second.

Compared with CC(C)NCC(O)COc1cccc2ccccc12 (centres undefined) [PROPRANOLOL], Cc1c(Cl)cccc1Nc1ccccc1C(=O)O [TOLFENAMIC ACID] is lower in “collision cross section (N2)” value: 161.5 Å² for the first, 155.6 Å² for the second.

Compared with C=Cc1c(C)c2cc3[nH]c(cc4nc(cc5nc(cc1[nH]2)C(C)=C5CCC(=O)O)C(CCC(=O)O)=C4C)c(C)c3C=C [PROTOPORPHYRIN IX], CC(C)=CCCC1(C)C=Cc2c(O)c3c(c(CC=C(C)C)c2O1)OC12C(CC4CC1C(C)(C)OC2(C/C=C(/C)C(=O)O)C4O)C3=O (centres undefined) [TETRAHYDROGAMBOGIC ACID] is higher in “collision cross section (N2)” value: 238.8 Å² for the first, 246.4 Å² for the second.

Compared with CC1=CCc2c(cc3oc(C)cc(=O)c3c2O)OC1 [PTAEROXYLIN], COc1ccc(-c2cc(=O)c3c(OC)c(OC)c(OC)cc3o2)cc1OC [SINENSETIN] is higher in “collision cross section (N2)” value: 153.5 Å² for the first, 186.4 Å² for the second.

First: CC[C@@]1(O)C[C@H](O[C@H]2C[C@H](N(C)C)[C@H](O)[C@H](C)O2)c2c(cc3c(c2O)C(=O)c2c(O)ccc(O)c2C3=O)[C@H]1C(=O)OC [PYRROMYCIN]
Second: COc1cc([C@H]2Oc3cc([C@H]4Oc5cc(O)cc(O)c5C(=O)[C@@H]4O)ccc3O[C@@H]2CO)ccc1O [SILIBININ]
The “collision cross section (N2)” value of the first is higher: 233.9 Å² for the first, 213.6 Å² for the second.

First: C=C[C@H]1CN2CC[C@H]1C[C@@H]2[C@@H](OC(=O)OCC)c1ccnc2ccc(OC)cc12 [QUININE ETHYL CARBONATE]
Second: O=C(O)[C@@H]1[C@H]2C[C@H]3c4[nH]c5ccccc5c4CCN3C[C@@H]2CC[C@@H]1O [YOHIMBIC ACID]
The “collision cross section (N2)” value of the first is higher: 196.7 Å² for the first, 181.7 Å² for the second.

Compared with CN/C(=C\[N+](=O)[O-])NCCSCc1ccc(CN(C)C)o1 [RANITIDINE], COc1ccc(C(=O)CC(=O)O)c2c1C=CC(C)(C)O2 [URSINOIC ACID] is lower in “collision cross section (N2)” value: 167 Å² for the first, 159.4 Å² for the second.

Compared with O=C(NC(Cc1cc(=O)[nH]c2ccccc12)C(=O)O)c1ccc(Cl)cc1 (centres undefined) [REBAMIPIDE], CC(=O)CC(c1ccccc1)c1c(O)c2ccccc2oc1=O (centres undefined) [WARFARIN] is lower in “collision cross section (N2)” value: 185 Å² for the first, 165.9 Å² for the second.

Going from Cn1c([N+](=O)[O-])cnc1COC(N)=O [RONIDAZOLE] to Cc1ncc([N+](=O)[O-])n1CC(C)O (centres undefined) [SECNIDAZOLE], the “collision cross section (N2)” value falls from 136.9 Å² to 135.2 Å².

First: O=C(/C=C/c1ccc(O)c(O)c1)O[C@H](Cc1ccc(O)c(O)c1)C(=O)O [ROSMARINIC ACID]
Second: O=C1C=CC(=C(c2ccc(O)cc2)c2ccc(O)cc2)C=C1 [ROSOLIC ACID]
The “collision cross section (N2)” value of the first is higher: 169.2 Å² for the first, 169.1 Å² for the second.

Going from C=C[C@H](C1=CC(=O)C=CC1=O)c1ccccc1 [S-DALBERGIONE] to CCN(Cc1ccncc1)C(=O)C(CO)c1ccccc1 (centres undefined) [TROPICAMIDE], the “collision cross section (N2)” value rises from 143.6 Å² to 169.5 Å².

Compared with COc1cc2c(cc1O)CCNC2C (centres undefined) [SALSOLINE], COc1ccc(C(CN(C)C)C2(O)CCCCC2)cc1 (centres undefined) [VENLAFAXINE] is higher in “collision cross section (N2)” value: 145.8 Å² for the first, 169.9 Å² for the second.

Going from O=C1C=C2C=C[C@@H]3C[C@@]2(O1)[C@H]1CCCCN31 [SECURININE] to O=C1C[C@@H]2OCC=C3CN4CC[C@]56c7ccccc7N1[C@H]5[C@H]2[C@H]3C[C@H]46 [STRYCHNINE], the “collision cross section (N2)” value rises from 146.4 Å² to 172.2 Å².

Compared with CO[C@H]1C[C@H](O[C@@H]2/C(C)=C/C[C@@H]3C[C@@H](C[C@]4(CC[C@H](C)[C@@H](C5CCCCC5)O4)O3)OC(=O)[C@@H]3C=C(C)/C(=N/O)[C@H]4OC/C(=C\C=C\[C@@H]2C)[C@]43O)O[C@@H](C)[C@@H]1O [SELAMECTIN], CC[C@H]1OC(=O)C[C@@H](O)[C@H](C)[C@@H](O[C@@H]2O[C@H](C)[C@@H](O[C@H]3C[C@@](C)(O)[C@@H](O)[C@H](C)O3)[C@H](N(C)C)[C@H]2O)[C@@H](CC=O)C[C@@H](C)C(=O)/C=C/C(C)=C/[C@@H]1CO[C@@H]1O[C@H](C)[C@@H](O)[C@@H](OC)[C@H]1OC [TYLOSIN] is higher in “collision cross section (N2)” value: 293.2 Å² for the first, 307.8 Å² for the second.

First: O=C(O)CCC(=O)Nc1ccc(S(=O)(=O)Nc2nccs2)cc1 [SUCCINYLSULFATHIAZOLE]
Second: CC(=O)Nc1ccc(S(=O)(=O)Nc2ccc([N+](=O)[O-])cc2)cc1 [SULFANITRAN]
The “collision cross section (N2)” value of the first is higher: 182.4 Å² for the first, 173.2 Å² for the second.

First: Nc1ccc(S(=O)(=O)Nc2ncccn2)cc1 [SULFADIAZINE]
Second: COc1cnc(NS(=O)(=O)c2ccc(N)cc2)nc1 [SULFAMETER]
The “collision cross section (N2)” value of the first is lower: 150.9 Å² for the first, 159 Å² for the second.

Compared with COc1ncnc(NS(=O)(=O)c2ccc(N)cc2)c1OC [SULFADOXINE], Nc1ccc(S(=O)(=O)Nc2ccnn2-c2ccccc2)cc1 [SULFAPHENAZOLE] is higher in “collision cross section (N2)” value: 166.2 Å² for the first, 170 Å² for the second.

First: CCCCCCCCNC(C)C(O)c1ccc(SC(C)C)cc1 (centres undefined) [SULOCTIDIL]
Second: CS(=O)(=O)c1ccc([C@@H](O)[C@@H](CO)NC(=O)C(Cl)Cl)cc1 [THIAMPHENICOL]
The “collision cross section (N2)” value of the first is higher: 197.3 Å² for the first, 170.7 Å² for the second.

Compared with c1ccc2[nH]c(-c3cscn3)nc2c1 [THIABENDAZOLE], Cc1cccc(N(C)C(=S)Oc2ccc3ccccc3c2)c1 [TOLNAFTATE] is higher in “collision cross section (N2)” value: 137.7 Å² for the first, 173.6 Å² for the second.

First: Cc1ncc(C[n+]2csc(CCO)c2C)c(N)n1 [THIAMINE]
Second: Nc1nc(=O)c2[nH]c(=O)cnc2[nH]1 [XANTHOPTERIN]
The “collision cross section (N2)” value of the first is higher: 155.9 Å² for the first, 131.1 Å² for the second.

First: CN(C)C(=S)SSC(=S)N(C)C [THIRAM]
Second: CC(C)CC1C(=O)N2CCCC2C2(O)OC(NC(=O)C3C=C4c5cccc6[nH]cc(c56)CC4N(C)C3)(C(C)C)C(=O)N12 (stereo not drawn) [alpha-ERGOCRYPTINE]
The “collision cross section (N2)” value of the first is lower: 148.4 Å² for the first, 236.1 Å² for the second.

For CC[C@H]1OC(=O)C[C@@H](O)[C@H](C)[C@@H](O[C@@H]2O[C@H](C)[C@@H](O)[C@H](N(C)C)[C@H]2O)[C@@H](CCN2C[C@H](C)C[C@H](C)C2)C[C@@H](C)C(=O)/C=C/C(C)=C/[C@@H]1CO[C@@H]1O[C@H](C)[C@@H](O)[C@@H](OC)[C@H]1OC [TILMICOSIN], the “collision cross section (N2)” value was 310.2 Å².

In the case of COP(=S)(OC)Oc1ccc(Sc2ccc(OP(=S)(OC)OC)cc2)cc1 [TEMEFOS], the “collision cross section (N2)” value is reported as 203.3 Å² and 187.6 Å².

Same assay, conditions: [M+Na]+; instrument: TW; calibrated with polyalanine and drug standards

Compared with C[C@@H]1O[C@@H](Oc2c(-c3ccc(O)c(O)c3)oc3cc(O)cc(O)c3c2=O)[C@H](O)[C@H](O)[C@H]1O [QUERCITRIN], OCc1ccccc1O[C@@H]1O[C@H](CO)[C@@H](O)[C@H](O)[C@H]1O [SALICIN] is lower in “collision cross section (N2)” value: 205.9 Å² for the first, 163.2 Å² for the second.

Going from CO[C@H]1C[C@@H]2CC[C@@H](C)[C@@](O)(O2)C(=O)C(=O)N2CCCC[C@H]2C(=O)O[C@H]([C@H](C)C[C@@H]2CC[C@@H](O)[C@H](OC)C2)CC(=O)[C@H](C)/C=C(\C)[C@@H](O)[C@@H](OC)C(=O)[C@H](C)C[C@H](C)/C=C/C=C/C=C/1C [SIROLIMUS] to COc1cc([C@@H]2c3cc4c(cc3[C@@H](O[C@@H]3O[C@@H]5CO[C@@H](c6cccs6)O[C@H]5[C@H](O)[C@H]3O)[C@H]3COC(=O)[C@H]23)OCO4)cc(OC)c1O [TENIPOSIDE], the “collision cross section (N2)” value falls from 311.6 Å² to 266.1 Å².

In the case of CC1(C)O[C@@H]2[C@@H](CO[C@@]3(COS(N)(=O)=O)OC(C)(C)O[C@@H]23)O1 [TOPIRAMATE], the “collision cross section (N2)” value is reported as 170.1 Å².

Same assay, conditions: [M]+; instrument: TW; calibrated with polyalanine and drug standards

In the case of C[N+]12CC[C@@]34c5ccccc5N5C(=O)CC6OCC=C(C1)[C@H](CC32)[C@@H]6C54 (some centres undefined) [STRYCHNINE METHIODIDE], the “collision cross section (N2)” value is reported as 175.2 Å².
